Laboratory results as given in patent EP0384722A1, “Chemical compositions” (PITMAN-MOORE LIMITED, priority 1989, dated 1990).

Assay: Bioavailability in dogs of two injectable formulations (GF s/c, OS i/m) of Compound A and Sulphadimethoxine (serum levels)
Assay type: in vivo
Conditions: 30mg total a.i./kg
Protocol: GF = Solution in glycofurol of Compound A 2% w/v and sulphadimethoxine (SDM), 10% w/v; OS = Suspension in Miglyol 812 of Compound A, 2% w/v and SDM, 10% w/v
Six adult beagles (three male, three female, including Dogs 1 to 4 of Example 1) and six adult male cats, housed in Coopers' kennels were in all cases given a single injection at 30mg. total a.i./kg. bodyweight, i.e. 1ml./4kg. The glycofurol solution (GF) was injected s/c in the dorsal neck region and the oily suspension (OS) was injected i/m in the quadriceps (anterior thigh) muscles.
Blood samples (jugular venous samples or on some occasions from the cats, cephalic vein samples) were collected before and after injection at the times indicated in Tables 5 to 8).
A standard well-plate bio-assay method was used for Compound A, SDM being estimated by the Bratton-Marshall method. (The bio-assay method cannot distinguish between parent compound and any active metabolites present, but the results are expressed as mg/L Compound A).

Structure (SMILES): COc1cc(NS(=O)(=O)c2ccc(N)cc2)nc(OC)n1 [SDM, sulphadimethoxine]
- Serum concentrations of SDM (dog No.1, GF s/c, 0 hours p.i.): 0 ng/mL
- Serum concentrations of SDM (dog No.1, GF s/c, 1 hours p.i.): 82000 ng/mL
- Serum concentrations of SDM (dog No.1, GF s/c, 4 hours p.i.): 95000 ng/mL
- Serum concentrations of SDM (dog No.1, GF s/c, 7 hours p.i.): 99000 ng/mL
- Serum concentrations of SDM (dog No.1, GF s/c, 24 hours p.i.): 47000 ng/mL
- Serum concentrations of SDM (dog No.1, GF s/c, 28 hours p.i.): 34000 ng/mL
- Serum concentrations of SDM (dog No.1, GF s/c, 31 hours p.i.): 30000 ng/mL
- Serum concentrations of SDM (dog No.1, GF s/c, 48 hours p.i.): 24000 ng/mL
- Serum concentrations of SDM (dog No.1, GF s/c, 55 hours p.i.): 17000 ng/mL
- Serum concentrations of SDM (dog No.1, GF s/c, 72 hours p.i.): 14000 ng/mL
- Serum concentrations of SDM (dog No.2, OS i/m, 0 hours p.i.): 0 ng/mL
- Serum concentrations of SDM (dog No.2, OS i/m, 1 hours p.i.): 5000 ng/mL
- Serum concentrations of SDM (dog No.2, OS i/m, 4 hours p.i.): 23000 ng/mL
- Serum concentrations of SDM (dog No.2, OS i/m, 7 hours p.i.): 35000 ng/mL
- Serum concentrations of SDM (dog No.2, OS i/m, 24 hours p.i.): 34000 ng/mL
- Serum concentrations of SDM (dog No.2, OS i/m, 28 hours p.i.): 31000 ng/mL
- Serum concentrations of SDM (dog No.2, OS i/m, 31 hours p.i.): 29000 ng/mL
- Serum concentrations of SDM (dog No.2, OS i/m, 48 hours p.i.): 35000 ng/mL
- Serum concentrations of SDM (dog No.2, OS i/m, 55 hours p.i.): 27000 ng/mL
- Serum concentrations of SDM (dog No.2, OS i/m, 72 hours p.i.): 6000 ng/mL
- Serum concentrations of SDM (dog No.3, GF s/c, 0 hours p.i.): 0 ng/mL
- Serum concentrations of SDM (dog No.3, GF s/c, 1 hours p.i.): 21000 ng/mL
- Serum concentrations of SDM (dog No.3, GF s/c, 4 hours p.i.): 90000 ng/mL
- Serum concentrations of SDM (dog No.3, GF s/c, 7 hours p.i.): 99000 ng/mL
- Serum concentrations of SDM (dog No.3, GF s/c, 24 hours p.i.): 51000 ng/mL
- Serum concentrations of SDM (dog No.3, GF s/c, 28 hours p.i.): 40000 ng/mL
- Serum concentrations of SDM (dog No.3, GF s/c, 31 hours p.i.): 30000 ng/mL
- Serum concentrations of SDM (dog No.3, GF s/c, 48 hours p.i.): 19000 ng/mL
- Serum concentrations of SDM (dog No.3, GF s/c, 55 hours p.i.): 12000 ng/mL
- Serum concentrations of SDM (dog No.3, GF s/c, 72 hours p.i.): 21000 ng/mL
- Serum concentrations of SDM (dog No.4, OS i/m, 0 hours p.i.): 0 ng/mL
- Serum concentrations of SDM (dog No.4, OS i/m, 1 hours p.i.): 7000 ng/mL
- Serum concentrations of SDM (dog No.4, OS i/m, 4 hours p.i.): 26000 ng/mL
- Serum concentrations of SDM (dog No.4, OS i/m, 7 hours p.i.): 36000 ng/mL
- Serum concentrations of SDM (dog No.4, OS i/m, 24 hours p.i.): 38000 ng/mL
- Serum concentrations of SDM (dog No.4, OS i/m, 28 hours p.i.): 37000 ng/mL
- Serum concentrations of SDM (dog No.4, OS i/m, 31 hours p.i.): 35000 ng/mL
- Serum concentrations of SDM (dog No.4, OS i/m, 48 hours p.i.): 26000 ng/mL
- Serum concentrations of SDM (dog No.4, OS i/m, 55 hours p.i.): 19000 ng/mL
- Serum concentrations of SDM (dog No.4, OS i/m, 72 hours p.i.): 10000 ng/mL
- Serum concentrations of SDM (dog No.5, OS i/m, 0 hours p.i.): 0 ng/mL
- Serum concentrations of SDM (dog No.5, OS i/m, 1 hours p.i.): 12000 ng/mL
- Serum concentrations of SDM (dog No.5, OS i/m, 4 hours p.i.): 43000 ng/mL
- Serum concentrations of SDM (dog No.5, OS i/m, 7 hours p.i.): 53000 ng/mL
- Serum concentrations of SDM (dog No.5, OS i/m, 24 hours p.i.): 42000 ng/mL
- Serum concentrations of SDM (dog No.5, OS i/m, 28 hours p.i.): 41000 ng/mL
- Serum concentrations of SDM (dog No.5, OS i/m, 31 hours p.i.): 43000 ng/mL
- Serum concentrations of SDM (dog No.5, OS i/m, 48 hours p.i.): 34000 ng/mL
- Serum concentrations of SDM (dog No.5, OS i/m, 55 hours p.i.): 25000 ng/mL
- Serum concentrations of SDM (dog No.5, OS i/m, 72 hours p.i.): 20000 ng/mL
- Serum concentrations of SDM (dog No.6, GF s/c, 0 hours p.i.): 0 ng/mL
- Serum concentrations of SDM (dog No.6, GF s/c, 1 hours p.i.): 26000 ng/mL
- Serum concentrations of SDM (dog No.6, GF s/c, 4 hours p.i.): 79000 ng/mL
- Serum concentrations of SDM (dog No.6, GF s/c, 7 hours p.i.): 94000 ng/mL
- Serum concentrations of SDM (dog No.6, GF s/c, 24 hours p.i.): 56000 ng/mL
- Serum concentrations of SDM (dog No.6, GF s/c, 28 hours p.i.): 47000 ng/mL
- Serum concentrations of SDM (dog No.6, GF s/c, 31 hours p.i.): 45000 ng/mL
- Serum concentrations of SDM (dog No.6, GF s/c, 48 hours p.i.): 34000 ng/mL
- Serum concentrations of SDM (dog No.6, GF s/c, 55 hours p.i.): 21000 ng/mL
- Serum concentrations of SDM (dog No.6, GF s/c, 72 hours p.i.): 10000 ng/mL
